# Data from US6436649B1, “Method for detecting and/or quantifying a hapten in a homogeneous phase and device for implementation thereof” (priority 1996, dated 2002).
# Read-outs that look alike come from different tables or passages of the source.
# Experiments:
# E. Coli β-lactamase = E. Coli β-lactamase (Escherichia coli, UniProt P00811); conditions: enzyme E. Coli; cited from earlier work
# Citro.F. β-lactamase = Citro.F. β-lactamase (Citrobacter freundii, UniProt P05193); conditions: enzyme Citro.F.; cited from earlier work
# type C β-lactamases [1] = biological target: T1, type C β-lactamases (Enterobacter cloacae, UniProt P05364); conditions: Ki of the parent inhibitor; cited from earlier work
# T1 construct: Ki
# P99/Q908R β-lactamases = P99/Q908R β-lactamases (Enterobacter cloacae, UniProt P05364); conditions: cited from earlier work
# type C β-lactamases [2] = test system: T2, type C β-lactamases; conditions: selected inhibitors, over the β-lactamases; cited from earlier work
# T2 construct: rows headed: Km; kcat
# β-lactamase from P99 = biological target: T3, β-lactamase from P99 (Enterobacter cloacae, UniProt P05364); experiment: Inhibitory activity in the presence of anti-nandrolone antibodies; assay type: biochemical; conditions: P99, [S] 60, [E] 0.25, [I] 0.2 μM
# T3 construct: host or cells: Enterobacter cloacae P99 (strain of origin as printed)
# Text: (§1) The objective of these measurements, by way of example, is the evaluation of the restoration of the predominant part of the enzymatic activity in the presence of a precise quantity of inhibitor.
# β-lactamase from E. Coli [3] = biological target: T4, β-lactamase from E. Coli (Escherichia coli, UniProt P00811); experiment: as above; assay type: biochemical; conditions: for V1: without antibodies
# Text: as §1
# [4] = biological target: T5, β-lactamase from Enterobacter cloacae P99 (Enterobacter cloacae, UniProt P05364); experiment: Inhibitory activity (Ki) on nitrocefin hydrolysis by β-lactamase; assay type: biochemical
# T5 construct: host or cells: Enterobacter cloacae P99 (strain of origin as printed)
# Text: (§2) The choice of the inhibitor depends on the kinetic parameters and on the possibilities of coupling with the hapten to be assayed (presence of functional groups which are not essential for the inhibitory activity). At the enzymatic level, the ideal inhibitor should have a kcat which is as low as possible (very slow rate of degradation) while having a Km which is as low as possible (high affinity for the enzyme) . In the case of the inhibition reactions envisaged, the Km value is close to the constant Ki. The Km can therefore be estimated from an evaluation of the Ki. This is obtained from kinetic measurements carried out in the presence of a reporter substrate with known characteristics, and this in the presence of a variable quantity of inhibitor. The ideal inhibitor should also have a rate constant k+1 (corresponding to the step of binding of the inhibitor to the enzyme) which is as high as possible. Based on this principle, it has been possible to select five inhibitors. They are:
# (§3) The measurements were carried out on β-lactamases from different bacterial strains: Enterobacter cloacae P99, Escherichia coli and Citrobacter freundii, symbolized by: P99, E. Coli and C. Freundii.
# (§4) The measurements are divided into four parts. […] The second is an evaluation of the inhibitory activity of the inhibitors (Table 9). The third groups together the measurements of enzymatic activity in order to determine the quantity of antibody to be used in the assay. The fourth part comprises the assay of the haptens.
# (§5) By way of example, the results of a selective study carried out on this compound are provided. The results presented in Table 9 give the values obtained according to a similar method. […] These measurements determine the concentrations of inhibitor (I) to be used during the assay.
# [5] = biological target: β-lactamase from C. Freundii (Citrobacter freundii, UniProt P05193); experiment: as above; assay type: biochemical
# Text: as §2, §3, §4, §5
# β-lactamase from E. Coli [6] = biological target: T4, β-lactamase from E. Coli; experiment: as above; assay type: biochemical
# Text: as §2, §3, §4, §5
# [7] = test system: P99/Q908R/Citro.F. β-lactamases; conditions: enzymes P99/Q908R/Citro.F.; cited from earlier work
# [8] = test system: P99/Q908E/E. Coli β-lactamases; conditions: enzymes P99/Q908E/E. Coli; cited from earlier work
# [9] = P99 [E] 0.0625 nM, [S] nitrocefin 50 μM, [I] 0.1 μM
# [10] = P99 [E] 0.0625 nM, [S] nitrocefin 50 μM, [I] 0.3 μM
# [11] = P99 [E] 0.0625 nM, [S] nitrocefin 50 μM, [I] 0.4 μM
# [12] = P99 [E] 0.0625 nM, [S] nitrocefin 50 μM, [I] 0.5 μM
# [13] = P99 [E] […], [S] nitrocefin 60 μM, [I] 0.2 μM
# [14] = P99 [E] […], [S] nitrocefin 60 μM, [I] 0.24 μM
# [15] = C. Freundii [E] 0.375 nM, [S] nitrocefin 60 μM, [I] 0.1 μM
# [16] = C. Freundii [E] 0.375 nM, [S] nitrocefin 60 μM, [I] 0.2 μM
# [17] = E. Coli [E] 1 nM, [S] nitrocefin 150 μM, [I] 0.2 μM
# [18] = E. Coli [E] 1 nM, [S] nitrocefin 150 μM, [I] 0.4 μM
# Sequence of Citro.F. β-lactamase (P05193 21-381): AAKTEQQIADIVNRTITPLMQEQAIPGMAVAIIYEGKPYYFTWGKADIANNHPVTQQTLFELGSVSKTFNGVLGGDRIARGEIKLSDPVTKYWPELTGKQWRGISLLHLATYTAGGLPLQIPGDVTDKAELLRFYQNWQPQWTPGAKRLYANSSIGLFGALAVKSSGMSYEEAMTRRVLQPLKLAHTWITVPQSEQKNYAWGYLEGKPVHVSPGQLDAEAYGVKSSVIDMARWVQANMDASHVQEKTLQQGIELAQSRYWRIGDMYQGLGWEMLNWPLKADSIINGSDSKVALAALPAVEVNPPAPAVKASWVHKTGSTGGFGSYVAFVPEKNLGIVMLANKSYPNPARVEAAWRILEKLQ
# Sequence of β-lactamase from C. Freundii (P05193 21-381): as above
# Sequence of E. Coli β-lactamase (P00811 20-377): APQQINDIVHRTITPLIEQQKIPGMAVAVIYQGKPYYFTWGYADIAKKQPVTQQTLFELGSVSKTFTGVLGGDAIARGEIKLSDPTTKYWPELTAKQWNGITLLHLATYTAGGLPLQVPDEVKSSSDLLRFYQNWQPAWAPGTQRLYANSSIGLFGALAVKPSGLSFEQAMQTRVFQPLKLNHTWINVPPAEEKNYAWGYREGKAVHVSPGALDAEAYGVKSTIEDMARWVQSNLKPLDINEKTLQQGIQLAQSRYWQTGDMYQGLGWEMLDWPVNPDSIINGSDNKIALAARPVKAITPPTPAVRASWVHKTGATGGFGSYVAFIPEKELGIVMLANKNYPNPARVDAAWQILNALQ
# T4 sequence (P00811 20-377): as above
smiles,measurement,setting,value
CC1(C)S[C@@H]2[C@H](NC(=O)C(C(=O)O)c3ccccc3)C(=O)N2[C@H]1C(=O)O (stereo partly shown) [Carbenicillin],Km,E. Coli β-lactamase,0.02 µM
same,kcat,E. Coli β-lactamase,0.003 S^−1
same,Km,Citro.F. β-lactamase,0.0005 µM
same,kcat,Citro.F. β-lactamase,0.004 S^−1
same,Ki,type C β-lactamases [1],10 nM
same,Km,P99/Q908R β-lactamases; enzyme P99/Q908R,0.01 µM
same,kcat,P99/Q908R β-lactamases; enzyme P99/Q908R,0.002 S^−1
COc1cccc(OC)c1C(=O)N[C@@H]1C(=O)N2[C@@H]1SC(C)(C)[C@@H]2C(=O)O [Methicillin],Km,E. Coli β-lactamase,0.15 µM
same,kcat,E. Coli β-lactamase,0.08 S^−1
same,Km,Citro.F. β-lactamase,0.002 µM
same,kcat,Citro.F. β-lactamase,0.01 S^−1
same,Km,P99/Q908R β-lactamases; enzyme P99/Q908R,0.03 µM
same,kcat,P99/Q908R β-lactamases; enzyme P99/Q908R,0.007 S^−1
CC(=O)OCC1=C(C(=O)O)N2C(=O)[C@@H](NC(=O)Cc3cccs3)[C@H]2SC1 [Cephalothin],Km,E. Coli β-lactamase,42 µM
same,kcat,E. Coli β-lactamase,300 S^−1
same,Km,P99/Q908R β-lactamases; enzyme P99/Q908R,15 µM
same,kcat,P99/Q908R β-lactamases; enzyme P99/Q908R,200 S^−1
O=C(Cc1cccs1)N[C@@H]1C(=O)N2C(C(=O)[O-])=C(C[n+]3ccccc3)CS[C@H]12 [Cephaloridine],Km,E. Coli β-lactamase,170 µM
same,kcat,E. Coli β-lactamase,130 S^−1
same,Km,Citro.F. β-lactamase,35 µM
same,kcat,Citro.F. β-lactamase,700 S^−1
same,Km,P99/Q908R β-lactamases; enzyme P99/Q908R,70 µM
same,kcat,P99/Q908R β-lactamases; enzyme P99/Q908R,650 S^−1
CO/N=C(\C(=O)N[C@@H]1C(=O)N2C(C(=O)O)=C(COC(N)=O)CS[C@H]12)c1ccco1 [Cefuroxime],Km,E. Coli β-lactamase,0.15 µM
same,kcat,E. Coli β-lactamase,0.15 S^−1
same,Km,type C β-lactamases [2],0.02 µM
same,Km,P99/Q908R β-lactamases; enzyme P99/Q908R,0.02 µM
same,kcat,P99/Q908R β-lactamases; enzyme P99/Q908R,0.04 S^−1
"CC1(C)S[C@@H]2[C@H](NC(=O)C(C(=O)O[C@H]3CC[C@H]4[C@@H]5CCC6=CC(=O)CC[C@@H]6[C@H]5CC[C@]34C)c3ccccc3)C(=O)N2[C@H]1C(=O)O (stereo partly shown) [Conjugate 1, nandrolone carbenicillinate]",Vab,β-lactamase from P99; anti-nandrolone serum dil. 500 x,200 nM/s
same,Vab,β-lactamase from P99; anti-nandrolone serum dil. 625 x,200 nM/s
same,Vab,β-lactamase from P99; anti-nandrolone serum dil. 770 x,189 nM/s
same,Vab,β-lactamase from P99; anti-nandrolone serum dil. 1000 x,170 nM/s
same,V1,β-lactamase from P99; without antibodies,131 nM/S
same,Vab,"β-lactamase from E. Coli [3]; [S] 150, [E] 1, [I] 0.24 μM, anti-nandrolone serum dil. 625 x",307 nM/s
same,Vab,"β-lactamase from E. Coli [3]; [S] 150, [E] 1, [I] 0.24 μM, anti-nandrolone serum dil. 714 x",299 nM/s
same,V1,"β-lactamase from E. Coli [3]; [S] 150, [E] 1, [I] 0.24 μM",210 nM/S
same,Vab,"β-lactamase from E. Coli [3]; [S] 150, [E] 1, [I] 1 μM, anti-nandrolone serum dil. 100 x",211 nM/s
same,Vab,"β-lactamase from E. Coli [3]; [S] 150, [E] 1, [I] 1 μM, anti-nandrolone serum dil. 125 x",210 nM/s
same,Vab,"β-lactamase from E. Coli [3]; [S] 150, [E] 1, [I] 1 μM, anti-nandrolone serum dil. 140 x",200 nM/s
same,Vab,"β-lactamase from E. Coli [3]; [S] 150, [E] 1, [I] 1 μM, anti-nandrolone serum dil. 200 x",174 nM/s
same,Vab,"β-lactamase from E. Coli [3]; [S] 150, [E] 1, [I] 1 μM, anti-nandrolone serum dil. 500 x",123 nM/s
same,V1,"β-lactamase from E. Coli [3]; [S] 150, [E] 1, [I] 1 μM",90 nM/S
same,Ki,"[4]; P99, summary value of the six determinations",74 nM
same,Ki,[4]; [9],76 nM
same,Ki,[4]; [10],62 nM
same,Ki,[4]; [11],65 nM
same,Ki,[4]; [12],74 nM
same,Ki,[4]; [13],88 nM
same,Ki,[4]; [14],78 nM
same,Ki,[4]; enzyme from P99,70 nM
same,V0/V1 1,[4]; [9],0.44
same,V1,[4]; [9],36 nM/s
same,V0/V1 1,[4]; [10],1.6
same,V1,[4]; [10],20 nM/s
same,V0/V1 1,[4]; [11],2.06
same,V1,[4]; [11],17 nM/s
same,V0/V1 1,[4]; [12],2.25
same,V1,[4]; [12],16 nM/s
same,V0/V1 1,[4]; [13],0.66
same,V1,[4]; [13],131 nM/s
same,V0/V1 1,[4]; [14],0.88
same,V1,[4]; [14],116 nM/s
same,V0/V1 1,[5]; [15],0.15
same,V1,[5]; [15],209 nM/s
same,V0/V1 1,[5]; [16],0.47
same,V1,[5]; [16],163 nM/s
same,Ki,[5]; [15],80 nM
same,Ki,[5]; [16],62 nM
same,Ki,"[5]; C. Freundii, summary value of the two determinations",71 nM
same,V0/V1 1,β-lactamase from E. Coli [6]; [17],0.19
same,V1,β-lactamase from E. Coli [6]; [17],260 nM/s
same,V0/V1 1,β-lactamase from E. Coli [6]; [18],0.41
same,V1,β-lactamase from E. Coli [6]; [18],220 nM/s
same,Ki,β-lactamase from E. Coli [6]; [17],800 nM
same,Ki,β-lactamase from E. Coli [6]; [18],760 nM
same,Ki,"β-lactamase from E. Coli [6]; E. Coli, summary value of the two determinations",780 nM
CC1(C)S[C@@H]2[C@H](NC(=O)Cc3ccccc3)C(=O)N2[C@H]1C(=O)O [Benzylpenicillin],Km,E. Coli β-lactamase,4.4 µM
same,kcat,E. Coli β-lactamase,45 S^−1
same,Km,[7],0.5 µM
same,kcat,[7],20 S^−1
CC(=O)OCC1=C(C(=O)O)N2C(=O)[C@@H](NC(=O)CC#N)[C@H]2SC1 [Cephaestrile],Km,P99/Q908R β-lactamases; enzyme P99/Q908R,140 µM
same,kcat,P99/Q908R β-lactamases; enzyme P99/Q908R,143 S^−1
Cc1onc(-c2ccccc2)c1C(=O)N[C@@H]1C(=O)N2[C@@H]1SC(C)(C)[C@@H]2C(=O)O [Oxacillin],Ki,type C β-lactamases [1],0.5 nM
same,kcat,type C β-lactamases [2],0.005 s⁻¹
same,Km,[8],0.0005 µM
same,kcat,[8],0.005 S^−1
CC(=O)OCC1=C(C(=O)O)N2C(=O)[C@@H](NC(=O)CCC[C@@H](N)C(=O)O)[C@H]2SC1 [Cephalosporin C],kcat,P99/Q908R β-lactamases; enzyme P99/Q908R,1100 S^−1
same,Km,"P99/Q908R β-lactamases; enzyme P99/Q908R, read-out: Km",400 µM
CC1(C)S[C@@H]2[C@H](NC(=O)[C@H](C(=O)O)c3ccsc3)C(=O)N2[C@H]1C(=O)O [Ticarcillin],Km,[8],0.25 µM
same,kcat,[8],0.045 S^−1
CC(=O)OCC1=C(C(=O)O)N2C(=O)[C@@H](NC(=O)[C@H](N)c3ccccc3)[C@H]2SC1 [Cephaglycine],kcat,P99/Q908R β-lactamases; enzyme P99/Q908R,1 S^−1
same,Km,"P99/Q908R β-lactamases; enzyme P99/Q908R, read-out: Km",2 µM
O=C(Cc1cccs1)N[C@@H]1C(=O)N2C(C(=O)O)=C(/C=C/c3ccc([N+](=O)[O-])cc3[N+](=O)[O-])CS[C@H]12 [Nitrocephin],Km,E. Coli β-lactamase,500 µM
same,kcat,E. Coli β-lactamase,500 S^−1
same,Km,Citro.F. β-lactamase,12 µM
same,kcat,Citro.F. β-lactamase,300 S^−1
same,kcat,"P99/Q908R β-lactamases; P99 enzyme, nitrocefin as reporter substrate",780 s⁻¹
same,kcat,P99/Q908R β-lactamases; enzyme P99/Q908R,780 S^−1
same,Km,"P99/Q908R β-lactamases; enzyme P99/Q908R, read-out: Km",25 µM
Cc1nnc(SCC2=C(C(=O)O)N3C(=O)[C@@H](NC(=O)Cn4cnnn4)[C@H]3SC2)s1 [Cefazolin],Km,E. Coli β-lactamase,400 µM
same,kcat,E. Coli β-lactamase,3000 150 S^−1
CO/N=C(\C(=O)N[C@@H]1C(=O)N2C(C(=O)O)=C(COC(C)=O)CS[C@H]12)c1csc(N)n1 [Cefotaxime],Km,E. Coli β-lactamase,1.7 µM
same,kcat,E. Coli β-lactamase,0.17 S^−1
same,Km,P99/Q908R β-lactamases; enzyme P99/Q908R,0.01 µM
same,kcat,P99/Q908R β-lactamases; enzyme P99/Q908R,0.01 S^−1
CC1=C(C(=O)O)N2C(=O)[C@@H](NC(=O)[C@H](N)c3ccccc3)[C@H]2SC1 [Cephalexin],Km,E. Coli β-lactamase,4 µM
same,kcat,E. Coli β-lactamase,38 S^−1
same,kcat,P99/Q908R β-lactamases; enzyme P99/Q908R,100 S^−1
same,Km,"P99/Q908R β-lactamases; enzyme P99/Q908R, read-out: Km",10 µM
